Measurements reported in PubChem BioAssay (NCI).
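Briefly, cells in 96-well plates were exposed to five compound concentrations for 48 h, and endpoints were estimated by linear interpolation. TGI denotes the concentration required for complete inhibition of growth.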

Assays:
Assay in all cases: inhibition of tumour cell growth, NCI panel, 48 h
[1] = test system: IGROV1 ovarian
[2] = test system: A498 renal
[3] = test system: SK-OV-3 ovarian
[4] = test system: SNB-19 CNS
[5] = test system: SN12C renal
[6] = test system: SF-268 CNS
[7] = test system: 786-0 renal
[8] = test system: SNB-75 CNS
[9] = test system: HCT-116 colon
[10] = test system: SK-MEL-5 melanoma
[11] = test system: NCI-H522 lung
[12] = test system: BT-549 breast
[13] = test system: OVCAR-5 ovarian
[14] = test system: OVCAR-8 ovarian
[15] = test system: U251 CNS
[16] = test system: UACC-257 melanoma
[17] = test system: TK-10 renal
[18] = test system: K-562 leukemia
[19] = test system: MOLT-4 leukemia
[20] = test system: SF-539 CNS
[21] = test system: T-47D breast
[22] = test system: PC-3 prostate
[23] = test system: A549 NSCLC
[24] = test system: LOX IMVI melanoma
[25] = test system: EKVX NSCLC
[26] = test system: SK-MEL-28 melanoma
[27] = test system: CAKI-1 renal
[28] = test system: HS 578T breast
[29] = test system: SF-295 CNS
[30] = test system: NCI-H226 lung
[31] = test system: SW-620 colon
[32] = test system: MDA-MB-231 breast
[33] = test system: HOP-62 NSCLC
[34] = test system: OVCAR-4 ovarian
[35] = test system: NCI/ADR-RES ovarian
[36] = test system: SK-MEL-2 melanoma
[37] = test system: RPMI-8226 leukemia
[38] = test system: COLO 205 colon
[39] = test system: HCT-15 colon
[40] = test system: SR leukemia
[41] = test system: MCF7 breast
[42] = test system: UO-31 renal
[43] = test system: KM12 colon
[44] = test system: OVCAR-3 ovarian
[45] = test system: NCI-H23 lung
[46] = test system: ACHN renal
[47] = test system: M14 melanoma
[48] = test system: HT29 colon
[49] = test system: MDA-N
[50] = test system: MDA-MB-435
[51] = test system: CCRF-CEM leukemia
[52] = test system: UACC-62 melanoma
[53] = test system: HL-60(TB) leukemia
[54] = test system: HCC-2998 colon
[55] = test system: HOP-92 NSCLC
[56] = test system: DU-145 prostate
[57] = test system: MALME-3M melanoma
[58] = test system: NCI-H460 lung
[59] = test system: RXF 393 renal

With `CCN(CC(COc1ccc2c(c1)[n+]([O-])nc(N)[n+]2[O-])OC(C)=O)C(C)=O` (stereo not drawn) the TGI [1] was > 100 µM, the TGI [2] was > 100 µM and the TGI [3] was 74.9 µM. The TGI [4] was > 100 µM, the TGI [5] was > 100 µM and the TGI [6] was > 100 µM. For the same molecule, the TGI [7] was > 100 µM, the TGI [8] was > 100 µM and the TGI [9] was > 100 µM. The TGI [10] was > 100 µM, the TGI [11] was 56.3 µM and the TGI [12] was > 100 µM. The TGI [13] was > 100 µM, the TGI [14] was > 100 µM and the TGI [15] was > 100 µM. The TGI [16] was > 100 µM, the TGI [17] was > 100 µM and the TGI [18] was > 100 µM. The TGI [19] was > 100 µM, the TGI [20] was > 100 µM and the TGI [21] was > 100 µM. For the same molecule, the TGI [22] was > 100 µM, the TGI [23] was > 100 µM and the TGI [24] was > 100 µM. The TGI [25] was > 100 µM, the TGI [26] was > 100 µM and the TGI [27] was > 100 µM. For the same molecule, the TGI [28] was > 100 µM, the TGI [29] was > 100 µM and the TGI [30] was > 100 µM. The TGI [31] was > 100 µM, the TGI [32] was > 100 µM and the TGI [33] was > 100 µM. For the same molecule, the TGI [34] was > 100 µM, the TGI [35] was > 100 µM and the TGI [36] was > 100 µM. For the same molecule, the TGI [37] was > 100 µM, the TGI [38] was > 100 µM and the TGI [39] was > 100 µM. The TGI [40] was > 100 µM, the TGI [41] was > 100 µM and the TGI [42] was > 100 µM. The TGI [43] was > 100 µM, the TGI [44] was > 100 µM and the TGI [45] was > 100 µM. For the same molecule, the TGI [46] was > 100 µM, the TGI [47] was > 100 µM and the TGI [48] was > 100 µM. The TGI [49] was > 100 µM, the TGI [50] was > 100 µM and the TGI [51] was > 100 µM. The TGI [52] was > 100 µM and the TGI [53] was > 100 µM.
In the case of `CCOP(C)(=O)C(Nc1ccc(F)cc1)c1ccc(F)cc1` (stereo not drawn), the TGI [1] is reported as > 100 µM, the TGI [2] is reported as > 100 µM and the TGI [3] is reported as > 100 µM. For the same molecule, the TGI [4] was > 100 µM, the TGI [5] was > 100 µM and the TGI [6] was > 100 µM. For the same molecule, the TGI [7] was > 100 µM, the TGI [9] was > 100 µM and the TGI [10] was > 100 µM. The TGI [11] was > 100 µM, the TGI [54] was > 100 µM and the TGI [13] was > 100 µM. For the same molecule, the TGI [14] was > 100 µM, the TGI [15] was > 100 µM and the TGI [16] was > 100 µM. For the same molecule, the TGI [17] was > 100 µM, the TGI [18] was > 100 µM and the TGI [55] was > 100 µM. The TGI [56] was > 100 µM, the TGI [19] was > 100 µM and the TGI [20] was > 100 µM. The TGI [21] was > 100 µM, the TGI [22] was > 100 µM and the TGI [23] was > 100 µM. For the same molecule, the TGI [24] was > 100 µM, the TGI [25] was > 100 µM and the TGI [26] was > 100 µM. For the same molecule, the TGI [27] was > 100 µM, the TGI [28] was > 100 µM and the TGI [29] was > 100 µM. The TGI [30] was > 100 µM, the TGI [31] was > 100 µM and the TGI [32] was > 100 µM. The TGI [33] was > 100 µM, the TGI [34] was > 100 µM and the TGI [35] was > 100 µM. For the same molecule, the TGI [36] was > 100 µM, the TGI [57] was > 100 µM and the TGI [37] was > 100 µM. For the same molecule, the TGI [38] was > 100 µM, the TGI [39] was > 100 µM and the TGI [58] was > 100 µM. For the same molecule, the TGI [59] was > 100 µM, the TGI [40] was > 100 µM and the TGI [42] was > 100 µM. The TGI [43] was > 100 µM, the TGI [44] was > 100 µM and the TGI [45] was > 100 µM. The TGI [46] was > 100 µM, the TGI [47] was > 100 µM and the TGI [48] was > 100 µM. For the same molecule, the TGI [49] was > 100 µM, the TGI [50] was > 100 µM and the TGI [51] was > 100 µM. The TGI [52] was > 100 µM and the TGI [53] was > 100 µM.
For `CCOC(=O)c1cc(-c2ccc(Cl)cc2)c([N+](=O)[O-])n1C`, the TGI [1] was > 10 µM, the TGI [3] was > 10 µM and the TGI [4] was > 10 µM. The TGI [5] was > 10 µM, the TGI [6] was > 10 µM and the TGI [7] was > 10 µM. For the same molecule, the TGI [9] was > 10 µM, the TGI [11] was > 10 µM and the TGI [12] was > 10 µM. For the same molecule, the TGI [54] was > 10 µM, the TGI [13] was > 10 µM and the TGI [14] was > 10 µM. For the same molecule, the TGI [15] was > 10 µM, the TGI [16] was > 10 µM and the TGI [17] was > 10 µM. For the same molecule, the TGI [18] was > 10 µM, the TGI [55] was > 10 µM and the TGI [56] was > 10 µM. The TGI [19] was > 10 µM, the TGI [20] was > 10 µM and the TGI [21] was 6.45 µM. For the same molecule, the TGI [23] was > 10 µM, the TGI [25] was > 10 µM and the TGI [28] was > 10 µM. The TGI [29] was > 10 µM, the TGI [30] was > 10 µM and the TGI [32] was 5.8 µM. For the same molecule, the TGI [34] was > 10 µM, the TGI [36] was > 10 µM and the TGI [57] was > 10 µM. The TGI [39] was > 10 µM, the TGI [58] was > 10 µM and the TGI [40] was > 10 µM. The TGI [42] was > 10 µM, the TGI [43] was > 10 µM and the TGI [44] was > 10 µM. The TGI [45] was > 10 µM, the TGI [46] was > 10 µM and the TGI [47] was > 10 µM. The TGI [48] was > 10 µM, the TGI [49] was > 10 µM and the TGI [50] was > 10 µM. For the same molecule, the TGI [51] was > 10 µM and the TGI [53] was > 10 µM.
`O=C1C[C@H]2[C@H](c3ccc(Br)cc3)[C@H]3C(=O)c4ccccc4NC(=O)[C@@H]3[C@@]2(O)c2ccccc2N1` was tested, and the TGI [1] was 33.4 µM, the TGI [2] was 78.8 µM and the TGI [3] was 78.8 µM. The TGI [4] was > 100 µM, the TGI [5] was > 100 µM and the TGI [6] was > 100 µM. It also gave a TGI [7] of 99.2 µM, a TGI [8] of 41.1 µM and a TGI [9] of 33.1 µM. It also gave a TGI [10] of 62 µM, a TGI [11] of 69.3 µM and a TGI [54] of 30.3 µM. The TGI [13] was 91.9 µM, the TGI [14] was > 100 µM and the TGI [15] was > 100 µM. It also gave a TGI [16] of 54.1 µM, a TGI [17] of 56.8 µM and a TGI [18] of 48.9 µM. For the same molecule, the TGI [55] was 4.96 µM, the TGI [56] was > 100 µM and the TGI [19] was 25 µM. For the same molecule, the TGI [20] was 54.7 µM, the TGI [22] was > 100 µM and the TGI [23] was > 100 µM. For the same molecule, the TGI [24] was 37.1 µM, the TGI [25] was > 100 µM and the TGI [26] was > 100 µM. The TGI [27] was 28.3 µM, the TGI [28] was > 100 µM and the TGI [29] was > 100 µM. The TGI [30] was > 100 µM, the TGI [31] was > 100 µM and the TGI [32] was 36.1 µM. The TGI [33] was 49.7 µM, the TGI [34] was > 100 µM and the TGI [35] was 61.9 µM. For the same molecule, the TGI [57] was 45.5 µM, the TGI [37] was 62.4 µM and the TGI [38] was 40.2 µM. For the same molecule, the TGI [39] was > 100 µM, the TGI [58] was > 100 µM and the TGI [59] was 26 µM. The TGI [40] was 90.8 µM, the TGI [41] was 77.2 µM and the TGI [43] was 43.8 µM. It also gave a TGI [44] of 37 µM, a TGI [45] of 38.9 µM and a TGI [46] of 97.7 µM. It also gave a TGI [47] of 29 µM, a TGI [48] of 30.8 µM and a TGI [49] of 55 µM. It also gave a TGI [50] of 26.9 µM, a TGI [51] of 53.3 µM and a TGI [52] of 61.5 µM. For the same molecule, the TGI [53] was 15.3 µM.
